Source: publication PMC8632500, “Identification of Conserved and Divergent Strigolactone Receptors in Sugarcane Reveals a Key Residue Crucial for Plant Branching Control” (Frontiers in Plant Science, 2021)
Changes are numbered by the printed parent chain.

What was measured:
Test in all cases: yeast two-hybrid, hormone-induced D14-MAX2 interaction
Format in all cases: cell-based
SsD14a (with SsMAX2) = target: T1, SsD14a (with SsMAX2) (Saccharum spontaneum, UniProt Z9T3V1O2D3); details: 5 uM rac-GR24 versus DMSO; 30 °C, 4 days; partner SsMAX2
T1 construct: full-length CDS as GAL4-BD fusion (pGBKT7), SsMAX2 as GAL4-AD fusion (pGADT7), yeast AH109; 7F5W is apo SsD14a lacking residues 1-49; with F-box protein MAX2 homolog (D3)
T1 sequence (Z9T3V1O2D3 1-316): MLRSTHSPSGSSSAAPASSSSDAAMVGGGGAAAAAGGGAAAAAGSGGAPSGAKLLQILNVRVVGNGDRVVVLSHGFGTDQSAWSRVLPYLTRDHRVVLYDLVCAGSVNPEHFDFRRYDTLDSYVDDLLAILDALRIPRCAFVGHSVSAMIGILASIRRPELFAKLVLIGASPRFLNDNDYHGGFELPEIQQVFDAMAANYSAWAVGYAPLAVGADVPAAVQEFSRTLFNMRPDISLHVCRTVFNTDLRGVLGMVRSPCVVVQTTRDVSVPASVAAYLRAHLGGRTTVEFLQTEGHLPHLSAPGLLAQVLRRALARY

AtD14 (with SsMAX2) [1] = target: T2, AtD14 (with SsMAX2) (Arabidopsis thaliana, UniProt Q9SQR3); details: 5 uM rac-GR24 versus DMSO; 30 °C, 4 days; partner SsMAX2
T2 construct: gene D14; GAL4-BD fusion, with Saccharum spontaneum MAX2 as GAL4-AD fusion, yeast AH109; with F-box protein MAX2 homolog (D3), Saccharum spontaneum
T2 sequence (Q9SQR3 1-267): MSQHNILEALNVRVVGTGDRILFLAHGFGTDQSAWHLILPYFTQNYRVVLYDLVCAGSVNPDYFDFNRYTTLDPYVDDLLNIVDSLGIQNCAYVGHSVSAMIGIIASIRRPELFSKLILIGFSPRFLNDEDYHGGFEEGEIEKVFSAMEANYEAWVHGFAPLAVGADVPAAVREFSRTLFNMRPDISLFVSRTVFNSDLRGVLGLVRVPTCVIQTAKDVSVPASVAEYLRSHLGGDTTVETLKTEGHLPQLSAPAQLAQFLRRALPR

OsD14ΔN (with SsMAX2) [2] = target: T3, OsD14ΔN (with SsMAX2) (Oryza sativa, UniProt Q10QA5, R312P); details: 5 uM rac-GR24 versus DMSO; 30 °C, 4 days; partner SsMAX2; R312P in full-length count
T3 construct: gene D14; N-terminally truncated (printed OsD14ΔN53; R261/R312 offset implies 51 residues removed), GAL4-BD fusion, with Saccharum spontaneum MAX2 as GAL4-AD fusion, yeast AH109; with F-box protein MAX2 homolog (D3), Saccharum spontaneum
T3 sequence (Q10QA5 54-318 R312P): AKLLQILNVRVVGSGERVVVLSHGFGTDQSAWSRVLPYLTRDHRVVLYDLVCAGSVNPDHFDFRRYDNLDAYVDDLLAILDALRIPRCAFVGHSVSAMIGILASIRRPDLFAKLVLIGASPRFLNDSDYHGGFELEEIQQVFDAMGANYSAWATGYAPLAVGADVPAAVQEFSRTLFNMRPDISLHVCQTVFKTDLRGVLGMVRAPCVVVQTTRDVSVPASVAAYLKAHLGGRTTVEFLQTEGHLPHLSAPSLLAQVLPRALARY

SsD14b (with SsMAX2) = target: T4, SsD14b (with SsMAX2) (Saccharum spontaneum, UniProt Z9BCY6HYO0); details: 5 uM rac-GR24 versus DMSO; 30 °C, 4 days; partner SsMAX2
T4 construct: full-length CDS as GAL4-BD fusion (pGBKT7), SsMAX2 as GAL4-AD fusion (pGADT7), yeast AH109; with F-box protein MAX2 homolog (D3)
T4 sequence (Z9BCY6HYO0 1-310): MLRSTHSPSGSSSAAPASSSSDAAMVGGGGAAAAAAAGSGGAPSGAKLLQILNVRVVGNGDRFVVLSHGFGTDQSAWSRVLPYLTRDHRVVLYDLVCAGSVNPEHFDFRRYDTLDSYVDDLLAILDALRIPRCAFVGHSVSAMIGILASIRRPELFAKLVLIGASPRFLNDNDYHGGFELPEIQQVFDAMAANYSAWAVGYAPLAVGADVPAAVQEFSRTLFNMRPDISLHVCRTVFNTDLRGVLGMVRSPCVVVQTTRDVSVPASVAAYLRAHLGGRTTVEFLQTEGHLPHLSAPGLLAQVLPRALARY

OsD14ΔN (with SsMAX2) [3] = target: T5, OsD14ΔN (with SsMAX2) (Oryza sativa, UniProt Q10QA5); details: 5 uM rac-GR24 versus DMSO; 30 °C, 4 days; partner SsMAX2
T5 construct: gene D14; N-terminally truncated (printed OsD14ΔN53; R261/R312 offset implies 51 residues removed), GAL4-BD fusion, with Saccharum spontaneum MAX2 as GAL4-AD fusion, yeast AH109; with F-box protein MAX2 homolog (D3), Saccharum spontaneum
T5 sequence (Q10QA5 54-318): T3 sequence (Q10QA5 54-318 R312P) with P259R

AtD14 (with SsMAX2) [4] = target: T6, AtD14 (with SsMAX2) (Arabidopsis thaliana, UniProt Q9SQR3, R262P); details: 5 uM rac-GR24 versus DMSO; 30 °C, 4 days; partner SsMAX2
T6 construct: gene D14; GAL4-BD fusion, with Saccharum spontaneum MAX2 as GAL4-AD fusion, yeast AH109; with F-box protein MAX2 homolog (D3), Saccharum spontaneum
T6 sequence (Q9SQR3 1-267 R262P): T2 sequence (Q9SQR3 1-267) with R262P

## CC1=CC(OC=C2C(=O)OC3c4ccccc4CC23)OC1=O (racemic) [rac-GR24]
SsD14a (with SsMAX2)
  yeast two-hybrid, hormone-induced D14-MAX2 interaction: SL induced both SsD14a and SsD14b to interact with SsMAX2 in yeast
AtD14 (with SsMAX2) [1]
  yeast two-hybrid, hormone-induced D14-MAX2 interaction: SsMAX2 interacted with AtD14 in an SL-dependent manner
OsD14ΔN (with SsMAX2) [2]
  yeast two-hybrid, hormone-induced D14-MAX2 interaction: AtD14R262P and OsD14ΔNR261P, like wild-type proteins, still have strong hormone-dependent interactions with SsMAX2
SsD14b (with SsMAX2)
  yeast two-hybrid, hormone-induced D14-MAX2 interaction: SL induced both SsD14a and SsD14b to interact with SsMAX2 in yeast
OsD14ΔN (with SsMAX2) [3]
  yeast two-hybrid, hormone-induced D14-MAX2 interaction: like wild-type proteins, still have strong hormone-dependent interactions with SsMAX2
AtD14 (with SsMAX2) [4]
  yeast two-hybrid, hormone-induced D14-MAX2 interaction: AtD14R262P and OsD14ΔNR261P, like wild-type proteins, still have strong hormone-dependent interactions with SsMAX2
